Laboratory results from patent US8518383B2, “Oral care products comprising buffer systems for improved mineralization/remineralization benefits” (Wm. Wrigley Jr. Company, priority 2006, dated 2013).

Test: in-vitro pH cycling model, enamel microhardness (remineralization efficacy)
Parameters: species or system human
Description: The purpose of this test was to evaluate in-vitro efficacy of soluble calcium and phosphate combinations. Testing was conducted at the University of Indiana. Enamel specimens (3×3×3 mm diameter window) were removed from extracted human teeth and mounted on acrylic rods. The enamel surface was ground and polished using alumina slurry, rinsed with deionized water, and air dried. Artificial lesions were then formed in the enamel specimens by a 96 hr immersion in a partially saturated HAP acid buffer consisting of 0.1 mM lactic acid and 0.2 wt % Carbopol C907 adjusted to a pH of 5. Four baseline indentations per specimen were placed with a Vickers diamond at a 200 g load for 15 seconds and the indentation lengths had to be in a range from 25-45 microns. Enamel specimens (N=18 per treatment) were then cycled daily through a series of solutions repeated over an 8 day time period. Artificial saliva, acid challenge and pooled whole saliva solutions were prepared fresh daily. After treatment, the enamel microhardness was assessed and the difference between initial and final microhardness was calculated as a measure of remineralization efficacy. The data was then statistically analyzed with overall treatment comparisons calculated using an ANOVA model at α=0.05. Post ANOVA pairwise comparisons were made using a 2 tailed student t-test.
Artificial saliva with active treatments (1 hr, 4× daily)
Saliva treatment (0.05 ppm fluoride, 30 min daily)
Acid challenge (partially saturated HAP acid/carbopol buffer, Ph 5.0, 20 min., 3× daily)
Saliva film in a humid environment (overnight)
Comparison of Ca-citrate and Ca-citrate+Phosphate blend vs. Ca-lactate (see FIG. 1)

CC(O)C(=O)[O-].CC(O)C(=O)[O-].[Ca+2] (stereo not drawn) [Ca-lactate]
dose response of enamel rehardening (500 and 1500 ppm): No significant dose response

O=C([O-])CC(O)(CC(=O)[O-])C(=O)[O-].O=C([O-])CC(O)(CC(=O)[O-])C(=O)[O-].[Ca+2].[Ca+2].[Ca+2] [CaCit (811), Ca Citrate]
ΔVSMH (difference between initial and final enamel microhardness) (Ca 811 ppm (0.38% salt) in artificial saliva, 1 hr 4x daily, 8 day pH cycling, mean, N=18): 29.65 | ΔVSMH (difference between initial and final enamel microhardness) (Ca 811 ppm (0.38% salt) in artificial saliva; 1 hr 4x daily, 8 day pH cycling; mean, N=18; 0.38%)): 29.55 | enamel rehardening, comparison in words (pairwise comparison of treatment groups, see value): higher enamel rehardening over Ca-lactate

CC(O)C(=O)[O-].CC(O)C(=O)[O-].O.O.O.O.O.[Ca+2] (stereo not drawn) [CaLac (500), Ca Lactate 5-hydrate]
ΔVSMH (difference between initial and final enamel microhardness) (Ca 500 ppm in artificial saliva, 1 hr 4x daily, 8 day pH cycling, mean, N=18): 4.78

CC(O)C(=O)[O-].CC(O)C(=O)[O-].O.O.O.O.O.[Ca+2] (stereo not drawn) [CaLac (1500), Ca Lactate 5-hydrate]
ΔVSMH (difference between initial and final enamel microhardness) (Ca 1500 ppm in artificial saliva, 1 hr 4x daily, 8 day pH cycling, mean, N=18): 5.99
